{"source": "patent US20050129769A1", "about": "“Polymeric articles for carrying therapeutic agents” (priority 2002, published 2005)", "key": {"[1]": {"tested_on": "chorioallantoic membranes (CAM) of 7-days old chicken embryos incubated with murine mammary carcinoma Cl-66 cells", "details": "3-day incubation", "experimental": "The chorioallantoic membranes (CAM) of 7-days old chicken embryos were incubated with each 10^5 cells of the murine mammary carcinoma Cl-66 24 hours prior to a 3-day incubation with disks containing either 5 μg of Doxorubicin, 5 μg of Dox equivalent in nanoparticles (14/1/1 IMMA/NOBA/NaA, PEG3400), 5 μg of Dox equivalent in nanoparticles functionalized with cyclic-RGD (14/1/1 IMMA/NOBA/NaA, PEG3400-cRGD), or PBS as a control. Linker attachment to nanoparticles was made as described in Example 31.\nAfter 3 days, CAMs were excised and photographed for analysis."}, "[2]": {"tested_on": "C-32 cells (human melanoma)", "assay": "In vitro cytotoxicity, MTT cell proliferation assay", "type": "cell-based", "details": "48 hours, free drug", "description": "The toxicity of Dox linked to the nanoarticles via the amide bond was tested in an in vitro toxicity assay against C-32 cells (human melanoma).\nIn a 96-well tissue culture microtiter plate, 10,000 cells of C-32 per well in culture medium were allowed to attach for 2 hours prior to incubation with varying concentrations of Dox-amide nanoarticle, and free Dox. Cells were incubated at 37° C., 5% CO2 in a humidified chamber for 48 hours. Cell proliferation was assayed using the calorimetric MTT kit (CT01, Chemicon, Int.).\nThe toxicity of Dox linked to the nanoarticles via the hydrazone bond was tested in an in vitro toxicity assay against C-32 cells (human melanoma).\nIn a 96-well tissue culture microtiter plate, 10,000 cells of C-32 per well in culture medium were allowed to attach for 2 hours prior to incubation with varying concentrations of Dox-hydrazone nanoarticle, and free Dox. Cells were incubated at 37° C., 5% CO2 in a humidified chamber for 48 hours. Cell proliferation was assayed using the calorimetric MTT kit (CT01, Chemicon, Int.)."}, "[3]": {"tested_on": "CL66 murine mammary carcinoma cells", "description": "The efficacy and toxicity of nano-article-conjugated doxorubicin (Dox-NP) was compared to doxorubicin (Dox) and a saline control. Dox-NP of composition 14/1/1 IMMA/CiBA/NaA, 5.6 w % Dox were made following procedures described in Example 16.\nCL66 murine mammary carcinoma cells were grown to 80-90% confluence in supplemented media, trypsinized for 2 min at 37° C. with 1× trypsin, rinsed with Hank's Balanced Salt Solution (w/out calcium and magnesium) and resuspended at 1×10^6 cell/ml, with 0.1 ml injected into the mammary fat pad of female Balb/C mice.\nLyophilized Dox-NP was reconstituted in sterile PBS at the appropriate concentration and stored at 2-8° C. for at least 1 hour, or overnight. Excipient Dox was diluted in PBS at the appropriate concentrations. 200 μL was injected intravenously through the tail vein of the mice on days 13, 15, and 18 following tumor challenge. Dox was injected at 225 μg/animal, while Dox-NP was injected at a nano-article level sufficient to deliver Dox at 250, 420 and 560 μg/animal.\nTumor volumes were measured superficially in two dimensions. Weight loss (or gain) and survival were recorded."}}}
{"smiles": "COc1cccc2c1C(=O)c1c(O)c3c(c(O)c1C2=O)C[C@@](O)(C(=O)CO)C[C@@H]3O[C@H]1C[C@H](N)[C@H](O)[C@H](C)O1", "note": "[Doxorubicin]", "values": [{"measurement": "reduction of the number of blood vessels / blood vessel distribution around the disk", "setting": "[1]; disks with 5 μg Dox or Dox equivalent", "result": "most effective in reducing the number of blood vessels"}, {"measurement": "embryos died during treatment", "setting": "[1]; disks with 5 μg", "result": "3 out of 10"}, {"measurement": "50% growth inhibition", "setting": "[2]", "result": 0.8, "unit": "µg/mL"}, {"measurement": "survival time", "setting": "[3]; 225 μg/animal Dox compared with the higher doses of Dox-NP", "result": "slightly longer survival time"}, {"measurement": "toxicity", "setting": "[3]; 225 μg/animal i.v. on days 13, 15, 18", "result": "toxic"}]}
